This is an account of results in patent US20190083638A1, “NICLOSAMIDE-CONJUGATED POLYPEPTIDE NANOPARTICLES” (priority 2017, published 2019).

Series [1] concerns Wnt/β-catenin signaling in HCT-116 cells. The experiment in a line: Western blot of Wnt signaling (cytosolic β-catenin, c-myc, cyclin D1). The conditions noted are these: HCT116, western blotting. The format is cell-based, human. As for the experimental part:
Western blots were performed following a procedure similar to that reported previously (Osada et al., Cancer Res., 2011, 71, 4172-4182). […] After treatment, the cytosolic fraction was isolated as previously described (Chen et al., Biochemistry, 2009, 48, 10267-10274). Immunoblot was used to detect the 3-catenin, c-myc and cyclin D1 protein levels in cytosol, with β-actin immunoblots used for loading control.
Wnt signaling activity was quantified as cytosolic β-catenin level by Western blot.
On the technique in general: Immunoblotting shows a protein as a band on a membrane.

Another series is described as follows: in vivo. The following applies: iv. As for the experimental part: Blood samples were obtained 0.5 h prior to dosing and at 0.08, 0.17, 0.33, 0.67, 1.5, 4, 8, 12, 24 hours after drug administration (n=4 per time point).
Blood samples were obtained at 0.5 h prior to the dosing and at 0.08, 0.17, 0.33, 0.67, 1.5, 4, 8, 12, and 24 h after drug administration.

The conditions of series [2]: free drug solution at 200 mg/kg BW; cited from earlier work.
Series [3] has as its system HCT116 human colon carcinoma cells. Description: In vitro cell proliferation (MTS assay). The class given is cell-based. The following applies: HCT-116, read-out: IC50, concentration of NIC (or NIC equivalent) to inhibit proliferation of cells by 50%, HCT116, 72 hours of exposure.
Description: HCT116 human colon carcinoma cells were purchased from American Type Culture Collection (Manassas, Va., USA) and maintained in McCoy's 5A medium supplemented with 10% fetal bovine serum (FBS, Atlanta Biologicals, Lawrenceville, Ga., USA), 200 U/ml penicillin, and 50 ng/ml streptomycin (Invitrogen, Grand island, NY, USA). Cells were grown at 37° C. in 5% CO2. The cells were plated at 5,000 cells per well into 96 well plates and treated with compounds (n=3) for 48 hours, at which point the cell proliferation was measured using the colorimetric MTS assay (Promega, Madison, Wis., USA). Values were normalized as a percentage of DMSO treated cells. The dose response data were fit with sigmoidal dose-response using Graphpad Prism.
The subject of the next series is HCT-116 tumors. Description: Tumor inhibition in HCT-116 cell xenograft model. The class given is in vivo, male nude mice. The conditions noted are these: i.v. every third day for two weeks, NIC 5 mg/kg, CP—NIC 20 mg/kg NIC-equivalent, n=8. As for the experimental part: Prior to in vivo implantation, HCT116 cells were washed twice in Minimum Essential Media (MEM) (51200-038; Invitrogen; Carlsbad, Calif.). HCT116 cells were implanted in the right flank of male nude mice by subcutaneous injection of 1-2×10^6 cells in 50 μL. All animals were treated in accordance with National Institute of Health Guide for the Care and Use of Laboratory Animals under protocols approved by the Duke University Institutional Animal Care and Use Committee.
(§1) Controls or drugs were administered by tail vein infusion (50 μL/min) of 500 μL. […] Tumor dimensions and BW were measured 3-4 times a week, and the tumor volume was calculated according to Volume [mm^3]=length×width×depth×½.
(§2) Mice were monitored for BW loss, and euthanized upon exceeding 15% loss in BW or if their tumors grew to a volume greater than 1000 mm3. The maximum tolerated dose (MTD) was determined in mice with tumors. Cumulative survival curves were compared using Kaplan-Meier analysis, and the Sidak test, Tukey Test and Wilcoxon test were calculated using GraphPad Prism 6 software.
Body-weight loss was also measured throughout the treatment of free NIC and CP—NIC conjugate. All treatments were tolerated for the period of the study (FIG. 11). […] It was hypothesized that the mechanism of action of NIC released from nanoparticles in this study is the same as free NIC as previously characterized.

Series [4] in a line: Pilot study, LD50 of NIC formulated in DMA/PEG 400. Also noted: species or system nude mice. The conditions noted are these: nude, mouse, in vivo.
In series [5] the test system is tumor cell lines from multiple tumor types. The conditions noted are these: breast, lung, prostate, ovary, blood, pancreas, colon tumor cell lines; read-out: IC50 range, inhibition of proliferation of tumor cell lines; cited from earlier work.
The nature of series [6]: Dose escalation / tolerability in mice bearing subcutaneous HCT116 tumors. The following applies: male, nude, mouse, in vivo, intravenous, 5 mg/kg BW; mice with tumors, 3 days/week for 2 weeks, tail vein infusion; read-out: maximum tolerated dose. As for the experimental part:
as §1, §2

One may read the MRT inf as the average time that molecules of a dose stay in the body. A word on the MRT last: it is a mean duration of stay, worked out from the concentration-time curve. What is called Tmax is the time from dosing to the highest level. Usually half-life stands for the time in which the quantity being followed falls by half. A higher half-life goes with slow decline. As usually defined, the Cmax is the peak of the concentration-time curve. As usually defined, the LD50 is the dose expected to kill half of the subjects tested. Read a high LD50 as a less toxic substance. For `O=C(Nc1ccc([N+](=O)[O-])cc1Cl)c1cc(Cl)ccc1O` [NIC, Niclosamide], the “levels of Wnt target proteins c-myc and cyclin D1” value in series [1] is “similarly reduced”. For the same compound, in “in vivo” (CD1, mouse), the “% AUC-inf extrapolated (AUC-last/AUC-inf) * 100” value is listed as 0.33 ± 0.45%, the MRT inf is 54 ± 28.8 min, the mean residence time MRT last was 54 ± 26.4 min and the Tmax is 12 ± 10.2 min. In the series “in vivo” (CD1, mouse), this compound had a half-life of 60 ± 13.2 min. Further, in the series “in vivo” (CD1, mouse, 128 mg/kg), the Cmax came to 6200 ± 4230 ng/mL. The “Vss (=CL × MRT; overall distrib. Volume at steay state)” value in the series “in vivo” (mouse) is 0.7 ± 0.28 L (per kg BW). Further, in series [2], the “time plasma levels of NIC were above the IC50 for Wnt inhibition” value is given as “less than 1 h”. In addition, the IC50 in series [3] came out at 850 nM. Also, the median survival time with HCT-116 tumors (Kaplan-Meier) is listed as 16 days. Besides, the mean tumor volume in the series on HCT-116 tumors (ten days after start of treatment) was 661 mm3. The same compound came in with an LD50 in series [4] of 5 mg/kg. For the same compound, in series [5], the IC50 is 130 to 4000 nM. In addition, in series [6], the MTD at 2 weeks came to 5 mg/kg.
